This passage reports EC50 and inhibition results from US12421205B2, “GLP-1 receptor agonist” (HYUNDAI PHARM CO., LTD., priority 2019, dated 2025).

One data set deals with T1, human GLP-1 receptor (Homo sapiens, UniProt P43220).
T1 construct: host or cells: CHO-K1
The experiment in a line: cAMP activity test (cAMP dynamic HTRF kit) in CHO-K1/GLP-1 receptor-expressing cells. It is filed as cell-based. The conditions noted are these: cAMP activity, CHO-K1/GLP-1 receptor-expressing cells; read-out: EC50. The procedure: The next day, the medium was removed, and a 50 uL of HBSS medium containing 0.1% BSA, 0.5 mM IBMX, and 5 mM HEPES was added to each well. […] The cAMP activity was measured according to the manufacturer's instructions using the cAMP dynamic HTRF kit (Cisbio, 62AM4PEC). After incubation, the medium was discarded, and the cells were lysed. cAMP-d2 and anti-cAMP cryptate conjugate were added thereto and reacted for 3 hours. […] Intracellular cAMP competes with cAMP-d2 for anti-cAMP cryptate, and the measured signal of fluorescence resonance energy transfer (FRET) is inversely proportional to intracellular cAMP.
In general terms: TR-FRET usually uses a lanthanide donor and a delayed reading to cut background.

The next data set deals with T2, hERG (Homo sapiens, UniProt Q12809).
T2 construct: purchased Invitrogen PV5365
T2 sequence (Q12809 whole entry): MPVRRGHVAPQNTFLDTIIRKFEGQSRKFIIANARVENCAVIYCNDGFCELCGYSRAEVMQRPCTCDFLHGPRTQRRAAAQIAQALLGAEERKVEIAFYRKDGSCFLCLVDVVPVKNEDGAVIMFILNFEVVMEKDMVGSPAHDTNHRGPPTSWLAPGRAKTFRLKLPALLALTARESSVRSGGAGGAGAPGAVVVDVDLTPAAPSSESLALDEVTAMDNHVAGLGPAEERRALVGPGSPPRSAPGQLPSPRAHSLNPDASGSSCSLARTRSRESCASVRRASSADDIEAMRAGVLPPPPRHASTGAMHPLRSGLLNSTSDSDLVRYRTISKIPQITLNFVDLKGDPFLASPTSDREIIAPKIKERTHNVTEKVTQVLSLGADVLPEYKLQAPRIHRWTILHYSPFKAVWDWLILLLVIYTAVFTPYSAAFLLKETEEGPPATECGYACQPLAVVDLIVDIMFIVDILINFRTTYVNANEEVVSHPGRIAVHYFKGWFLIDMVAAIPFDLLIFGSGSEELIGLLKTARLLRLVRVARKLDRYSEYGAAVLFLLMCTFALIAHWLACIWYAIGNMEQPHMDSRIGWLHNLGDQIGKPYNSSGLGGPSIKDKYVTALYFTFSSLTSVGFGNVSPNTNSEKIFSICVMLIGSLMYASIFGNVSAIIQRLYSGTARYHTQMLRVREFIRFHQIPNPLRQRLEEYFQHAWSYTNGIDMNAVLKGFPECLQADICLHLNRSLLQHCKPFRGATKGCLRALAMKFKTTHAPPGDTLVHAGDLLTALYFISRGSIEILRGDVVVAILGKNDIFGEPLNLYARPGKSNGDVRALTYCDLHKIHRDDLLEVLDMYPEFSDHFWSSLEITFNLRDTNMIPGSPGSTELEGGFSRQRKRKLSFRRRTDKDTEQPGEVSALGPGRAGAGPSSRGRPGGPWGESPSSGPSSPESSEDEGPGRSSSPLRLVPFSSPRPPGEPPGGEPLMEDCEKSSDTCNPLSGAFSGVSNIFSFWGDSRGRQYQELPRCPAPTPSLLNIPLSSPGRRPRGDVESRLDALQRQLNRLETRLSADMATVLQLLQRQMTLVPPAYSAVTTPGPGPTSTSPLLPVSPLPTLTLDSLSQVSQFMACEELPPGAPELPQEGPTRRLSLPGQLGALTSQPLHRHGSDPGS
The experiment in a line: hERG inhibition test (Predictor hERG Fluorescence Polarization assay kit). It is filed as binding. The conditions noted are these: probe kit Tracer (fluorescent hERG ligand), hERG % inhibition at 10 uM, relative to E-4031 and solvent control. The procedure: To measure the hERG (Human ether-a-go-go-related gene) channel inhibition rate of the compound according to the present invention, the following test was performed using a Predictor hERG Fluorescence Polarization assay kit (Invitrogen, PV5365).
Specifically, a test substance was dissolved in DMSO to prepare a 50 mM solution. A 4 mM solution was prepared by diluting the 50 mM solution with DMSO in a U bottom 96-well plate (SPL, 34096), and was then diluted 100-fold with a test buffer to prepare a 40 uM (4×) solution. The positive control E-4031 (3 mM) provided in the kit was diluted 25-fold with a test buffer to prepare a 120 uM solution) 5 uL of the diluted test substance solution was dispensed into a 384-well assay plate (corning, 3677). hERG Membrane (2×) and Tracer (4×) provided in the kit were respectively added at 10 uL and 5 uL, and then subjected to the reaction at room temperature for 2.5 hours. After completion of the reaction, fluorescence polarization (mP) was measured with a Multimode Plate Reader (Perkin-Elmer, Envision) (excitation wavelength of 531 nm, and emission wavelength 579 nm). The value of the percent inhibitory activity (% inhibition) at 10 uM of each test substance was calculated by the following equation, and the results are shown in Table 2: (% inhibition)=100−{(mP of the compound according to the present invention−E-4031 mP)/(mP of the solvent control−E-4031 mP)}×100

By EC50 is commonly meant the concentration at which the effect is half-maximal. As usually defined, the inhibition is the relative decrease from the control value, in per cent.

T1 sequence (P43220 24-463): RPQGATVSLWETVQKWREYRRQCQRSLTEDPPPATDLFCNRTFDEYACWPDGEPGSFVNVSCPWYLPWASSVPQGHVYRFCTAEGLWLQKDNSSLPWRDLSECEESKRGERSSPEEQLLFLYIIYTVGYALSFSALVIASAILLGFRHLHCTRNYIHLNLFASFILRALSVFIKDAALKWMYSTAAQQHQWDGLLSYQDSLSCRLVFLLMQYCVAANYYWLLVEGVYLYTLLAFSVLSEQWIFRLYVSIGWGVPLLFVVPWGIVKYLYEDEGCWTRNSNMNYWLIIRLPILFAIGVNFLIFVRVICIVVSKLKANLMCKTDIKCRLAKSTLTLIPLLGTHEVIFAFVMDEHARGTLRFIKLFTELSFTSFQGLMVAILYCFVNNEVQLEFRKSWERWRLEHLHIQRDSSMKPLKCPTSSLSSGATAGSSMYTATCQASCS

Take `N#Cc1ccc(COc2cccc(-c3ccc(Cc4nc5ccc(C(=O)O)cc5n4CCF)cc3F)n2)c(F)c1` [Example 58, 2-(4-(6-(4-cyano-2-fluorobenzyloxy)pyridin-2-yl)-3-fluorobenzyl)-1-(2-fluoroethyl)-1H-benzo[d]imidazole-6-carboxylic acid]: at human GLP-1 receptor, the EC50 was 170 nM. Moreover, the inhibition at 2.5 h, 10 µM at hERG is 2.81%.
The like results for `O=C(O)c1ccc2nc(Cc3ccc(-c4cccc(OCc5ccc(Cl)cc5F)n4)c(F)c3)n(CC3CCCO3)c2c1` (stereo not shown) [Example 11, 2-(4-(6-(4-chloro-2-fluorobenzyloxy)pyridin-2-yl)-3-fluorobenzyl)-1-((tetrahydrofuran-2-yl)methyl)-1H-benzo[d]imidazole-6-carboxylic acid] were, in that order, 6.5 nM and -1.31%.
The like results for `N#Cc1ccc(COc2cccc(-c3ccc(Cc4nc5ccc(C(=O)O)cc5n4C[C@@H]4CCCO4)c(F)c3)n2)c(F)c1` [Example 66, (S)-2-(4-(6-(4-cyano-2-fluorobenzyloxy)pyridin-2-yl)-2-fluorobenzyl)-1-((tetrahydrofuran-2-yl)methyl)-1H-benzo[d]imidazole-6-carboxylic acid] were, in that order, 4.6 nM and -7.97%.
The like results for `O=C(O)c1ccc2nc(Cc3ccc(-c4cccc(OCc5ccc(Cl)cc5)n4)cc3F)n(CC3CCCO3)c2c1` (stereo not shown) [Example 75, 2-(4-(6-(4-chlorobenzyloxy)pyridin-2-yl)-2-fluorobenzyl)-1-((tetrahydrofuran-2-yl)methyl)-1H-benzo[d]imidazole-6-carboxylic acid] were, in that order, 23 nM and -7.98%.
Take `O=C(O)c1ccc2nc(Cc3ccc(-c4ccc(F)c(OCc5ccc(Cl)cc5F)c4)c(F)c3)n(CC3CCCO3)c2c1` (stereo not shown) [Example 92, 2-((3′-(4-chloro-2-fluorobenzyloxy)-2,4′-difluorobiphenyl-4-yl)methyl)-1-((tetrahydrofuran-2-yl)methyl)-1H-benzo[d]imidazole-6-carboxylic acid]: at human GLP-1 receptor, the EC50 was 78 nM. Further, the inhibition at 2.5 h, 10 µM at hERG was 8.68%.
The like results for `O=C(O)c1ccc2nc(Cn3ccc(-c4cccc(OCc5ccc(Cl)cc5F)n4)cc3=O)n(C[C@@H]3CCCO3)c2c1` [Example 108, (S)-2-((4-(6-(4-chloro-2-fluorobenzyloxy)pyridin-2-yl)-2-oxopyridin-1(2H)-yl)methyl)-1-((tetrahydrofuran-2-yl)methyl)-1H-benzo[d]imidazole-6-carboxylic acid] were, in that order, 130 nM and 4%.
Take `O=C(O)c1ccc2nc(Cc3ccc(-c4cccc(OCc5ccc(C(F)(F)F)cc5)n4)cc3F)n(CC3CCCO3)c2c1` (stereo not shown) [Example 77, 2-(2-fluoro-4-(6-(4-(trifluoromethyl)benzyloxy)pyridin-2-yl)benzyl)-1-((tetrahydrofuran-2-yl)methyl)-1H-benzo[d]imidazole-6-carboxylic acid]: the EC50 at human GLP-1 receptor worked out at 28 nM. Also, the inhibition at 2.5 h, 10 µM at hERG is -70.9%.
The like results for `N#Cc1ccc(COc2cccc(-c3ccc(Cc4nc5ccc(C(=O)O)cc5n4CC4CCCO4)c(F)c3)n2)c(F)c1` (stereo not shown) [Example 15, 2-(4-(6-(4-cyano-2-fluorobenzyloxy)pyridin-2-yl)-2-fluorobenzyl)-1-((tetrahydrofuran-2-yl)methyl)-1H-benzo[d]imidazole-6-carboxylic acid] were, in that order, 16 nM and 1.67%.
The like results for `N#Cc1ccc(COc2cccc(-c3ccc(Cc4nc5ccc(C(=O)O)cc5n4Cc4ccco4)cc3)c2)c(F)c1` [Example 27, 2-((3′-(4-cyano-2-fluorobenzyloxy)biphenyl-4-yl)methyl)-1-(furan-2-ylmethyl)-1H-benzo[d]imidazole-6-carboxylic acid] were, in that order, 270 nM and -4.76%.
The like results for `N#Cc1ccc(COc2cccc(-c3ccc(Cc4nc5ccc(C(=O)O)cc5n4CC4CCCO4)cc3F)c2)c(F)c1` (stereo not shown) [Example 9, 2-((3′-(4-cyano-2-fluorobenzyloxy)-2-fluorobiphenyl-4-yl)methyl)-1-((tetrahydrofuran-2-yl)methyl)-1H-benzo[d]imidazole-6-carboxylic acid] were, in that order, 75 nM and 0.48%.
In the case of `O=C(O)c1ccc2nc(Cc3ccc(-c4cccc(OCc5ccc(C(F)(F)F)cc5)n4)c(F)c3)n(C[C@@H]3CCO3)c2c1` [Example 121, (S)-2-(3-fluoro-4-(6-((4-(trifluoromethyl)benzyl)oxy)pyridin-2-yl)benzyl)-1-(oxetan-2-ylmethyl)-1H-benzo[d]imidazole-6-carboxylic acid], the EC50 on human GLP-1 receptor came out at 15 nM. For the same compound, the inhibition at 2.5 h, 10 µM at hERG was -10.7%.
Regarding `COCCn1c(Cc2ccc(-c3cccc(OCc4ccc(Cl)cc4F)n3)cc2)nc2ccc(C(=O)O)cc21` [Example 2, 2-(4-(6-(4-chloro-2-fluorobenzyloxy)pyridin-2-yl)benzyl)-1-(2-methoxyethyl)-1H-benzo[d]imidazole-6-carboxylic acid], the EC50 on human GLP-1 receptor turned out to be 63 nM. Moreover, the inhibition at 2.5 h, 10 µM at hERG was -11.9%.
As for `O=C(O)c1ccc2nc(Cc3cc(F)c(-c4cccc(OCc5ccc(Cl)cc5F)n4)cc3F)n(C[C@@H]3CCCO3)c2c1` [Example 116, (S)-2-(4-(6-((4-chloro-2-fluorobenzyl)oxy)pyridin-2-yl)-2,5-difluorobenzyl)-1-((tetrahydrofuran-2-yl)methyl)-1H-benzo[d]imidazole-6-carboxylic acid], on human GLP-1 receptor, the EC50 was less than 3.2 nM. Further, the inhibition at 2.5 h, 10 µM on hERG was 5.86%.
The like results for `N#Cc1ccc(COc2cccc(-c3ccc(Cc4nc5ccc(C(=O)O)cc5n4Cc4ccco4)c(F)c3)c2)c(F)c1` [Example 28, 2-((3′-(4-cyano-2-fluorobenzyloxy)-3-fluorobiphenyl-4-yl)methyl)-1-(furan-2-ylmethyl)-1H-benzo[d]imidazole-6-carboxylic acid] were, in that order, 130 nM and 0.52%.
The like results for `O=C(O)c1ccc2nc(Cc3ccc(-c4cccc(OCc5c(F)cccc5Cl)n4)c(F)c3)n(C[C@@H]3CCO3)c2c1` [Example 126, (S)-2-(4-(6-((2-chloro-6-fluorobenzyl)oxy)pyridin-2-yl)-3-fluorobenzyl)-1-(oxetan-2-ylmethyl)-1H-benzo[d]imidazole-6-carboxylic acid] were, in that order, 510 nM and -3.99%.
The corresponding values for `COCCn1c(Cc2ccc(-c3cccc(OCc4ccc(Cl)cc4F)n3)c(F)c2)nc2ccc(C(=O)O)cc21` [Example 6, 2-(4-(6-(4-chloro-2-fluorobenzyloxy)pyridin-2-yl)-3-fluorobenzyl)-1-(2-methoxyethyl)-1H-benzo[d]imidazole-6-carboxylic acid] are 25 nM and 22.8%.
For the compound `N#Cc1ccc(COc2cccc(-c3ccc(Cc4nc5ccc(C(=O)O)cc5n4CC4CCCO4)cc3)c2)c(F)c1` (stereo not shown) [Example 8, 2-((3′-(4-cyano-2-fluorobenzyloxy)biphenyl-4-yl)methyl)-1-((tetrahydrofuran-2-yl)methyl)-1H-benzo[d]imidazole-6-carboxylic acid], the EC50 at human GLP-1 receptor was found to be 120 nM. For the same compound, the inhibition at 2.5 h, 10 µM at hERG was 4.01%.
The like results for `O=C(O)c1ccc2nc(Cc3ccc(-c4cccc(OCc5ccc(Cl)cc5F)n4)cc3F)n(Cc3cccs3)c2c1` [Example 49, 2-(4-(6-(4-chloro-2-fluorobenzyloxy)pyridin-2-yl)-2-fluorobenzyl)-1-(thiophen-2-ylmethyl)-1H-benzo[d]imidazole-6-carboxylic acid] were, in that order, 14 nM and 12.5%.
The like results for `COCCn1c(Cc2ccc(-c3cccc(COc4ccc(Cl)cc4F)n3)cc2[N+](=O)[O-])nc2ccc(C(=O)O)cc21` [Example 7, 2-(4-(6-((4-chloro-2-fluorophenoxy)methyl)pyridin-2-yl)-2-nitrobenzyl)-1-(2-methoxyethyl)-1H-benzo[d]imidazole-6-carboxylic acid] were, in that order, 2000 nM and 1.63%.
The corresponding values for `Cc1cccc(COc2cccc(-c3ccc(Cc4nc5ccc(C(=O)O)cc5n4CC4CCCO4)cc3F)n2)c1` (stereo not shown) [Example 90, 2-(3-fluoro-4-(6-(3-methylbenzyloxy)pyridin-2-yl)benzyl)-1-((tetrahydrofuran-2-yl)methyl)-1H-benzo[d]imidazole-6-carboxylic acid] are 250 nM and 20.2%.
